System: Pancreatic islets
Experiment: not given
Conditions: pancreatic islets (Davani B et al. 2000); cited from earlier work

SMILES	effects of 11-dehydocorticosterone on insulin release
CC1(C)[C@@H](OC(=O)CCC(=O)O)CC[C@]2(C)[C@H]3C(=O)C=C4[C@@H]5C[C@@](C)(C(=O)O)CC[C@]5(C)CC[C@@]4(C)[C@]3(C)CC[C@@H]12 [carbenoxolone]	can inhibit the effects of 11-dehydocorticosterone on insulin release

Target: T1, human 11βHSD1 enzyme (Homo sapiens, UniProt P28845)
T1 construct: a construct containing full-length human 11βHSD1 enzyme (in pCMVHyg); expressed in transfected cells
T1 sequence (P28845 whole entry): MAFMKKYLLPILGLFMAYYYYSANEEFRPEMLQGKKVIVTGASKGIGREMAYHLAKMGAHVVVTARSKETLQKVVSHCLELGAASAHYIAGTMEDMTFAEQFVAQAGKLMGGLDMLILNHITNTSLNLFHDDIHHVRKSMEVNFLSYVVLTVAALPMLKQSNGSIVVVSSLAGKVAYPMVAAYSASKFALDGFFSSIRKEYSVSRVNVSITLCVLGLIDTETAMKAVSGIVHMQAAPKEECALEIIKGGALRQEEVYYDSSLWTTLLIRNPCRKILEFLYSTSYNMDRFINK
Experiment: HeLa GRE4-βGal/11βHSD1 cell reporter assay (cortisone to cortisol, β-galactosidase readout)
Assay type: cell-based
Conditions: HeLa GRE4-βGal/11βHSD1 cells, cortisone 1 μM, overnight incubation, absorbance at 570 nm
From the text: HeLa cells (human cervical carcinoma derived cells) were stably transfected with a construct containing four copies of the glucocorticoid response element (GRE) linked to a beta-galactosidase reporter gene (3 kb lac Z gene derived from pSV-B-galactosidase). These cells were then further stably transfected with a construct containing full-length human 11βHSD1 enzyme (in pCMVHyg) to create GRE4-βGal/11βHSD1 cells. The principal of the assay is as follows. Cortisone is freely taken up by the cells and is converted to cortisol by 11βHSD1 oxo-reductase activity and cortisol (but not cortisone) binds to and activates the glucocorticoid receptor. Activated glucocorticoid receptor then binds to the GRE and initiates transcription and translation of β-galactosidase. Enzyme activity can then be assayed with high sensitivity by colourimetric assay.
Cells were routinely cultured in DMEM (Invitrogen, Paisley, Renfrewshire, UK) containing 10% foetal calf serum (LabTech), 1% glutamine (Invitrogen), 1% penicillin & streptomycin (Invitrogen), 0.5 mg/ml G418 (Invitrogen) & 0.5 mg/ml hygromycin (Boehringer). Assay media was phenol red free-DMEM containing 1% glutamine, 1% penicillin & streptomycin.
Compounds (1 mM) to be tested were dissolved in dimethyl sulphoxide (DMSO) and serially diluted into assay media containing […]. […]
A cocktail (25 μl) consisting of 10× Z-buffer (600 mM Na2HPO4, 400 mM NaH2PO4.2H2O, 100 mM KCl, 10 MM MgSO4.7H2O, 500 mM β-mercaptoethanol, pH 7.0), SDS (0.2%), chlorophenol red-β-D-galactopyranoside (5 mM, Roche Diagnostics) was added per well and plates incubated at 37° C. for 3-4 hours. β-Galactosidase activity was indicated by a yellow to red colour change (absorbance at 570 nm) measured using a Tecan Spectrafluor Ultra.
The calculation of median inhibitory concentration (IC50) values for the inhibitors was performed using Origin 6.0 (Microcal Software, Northampton Mass. USA). Dose response curves for each inhibitor were plotted as OD units at each inhibitor concentration with relation to a maximum signal (cortisone, no compound) and IC50 values calculated. […]

IC50 [nM]	SMILES
76.8	Cc1ccc(C(=O)Cc2ccsc2)cc1 [Example 3, (Thien-3-ylmethyl)-(4-methylphenyl)-ketone]
93.5	O=C(CS(=O)(=O)N1CCCC1)c1ccc(F)cc1 [Example 79, (4-Fluorophenyl)-(pyrrolidin-1-ylsulphonylmethyl)-ketone]
153	CC(=O)Nc1ccc(OCC(=O)c2ccc(Cl)cc2)cc1 [Example 155, (4-Chlorophenyl)-(4-acetylaminophenoxymethyl)-ketone]

System: not given
Experiment: not given
Conditions: not given

SMILES	melting point [°C]
O=C(Cc1ccc(Cl)c(Cl)c1)c1ccc(Cl)cc1 [Example 4, (4-Chlorophenyl)-(3,4-dichlorophenylmethyl)-ketone]	99 to 103
O=C(Cn1cnc2ccccc21)c1ccc(Cl)cc1Cl [Example 7, (Benzimidazol-1-ylmethyl)-(2,4-dichlorophenyl)-ketone]	130 to 132
O=C(c1ccccc1)C(Cc1ccc(Cl)cc1)c1cccnn1 (centres unmarked) [Example 13, [2-(4-Chlorophenyl)-1-(pyridazin-3yl)ethyl]-(phenyl)-ketone]	140 to 142
O=C(CS(=O)(=O)c1ccccc1)c1ccccn1 [Example 100, (Phenylsulphonylmethyl)-(pyrid-2-yl)-ketone]	101 to 103
O=C(Cc1ccc(Br)cc1)c1ccc(Cl)cc1 [RE 3, (4-Bromobenzyl)-(4-chlorophenyl)-ketone]	125 to 126
COc1ccc(C(=O)Cc2ccccc2)cc1 [Reference Example 5, (4-Methoxyphenyl)-(benzyl)-ketone]	68 to 69
Cc1ccc(C(=O)CCc2ccc(N3CCN(c4ccncc4)CC3)cc2)cc1 [Reference Example 55, {4-[1-(Pyrid-4-yl)piperazin-4-yl]phenethyl}-(4-methylphenyl)-ketone]	114 to 115

More lines, now with the values ahead:

melting point [°C]	SMILES
71 to 72	Cc1ccc(CC(C(=O)c2ccccc2)N2CCCCC2)cc1 (centres unmarked)
100 to 102	O=C(c1cccnc1)C(Cc1ccc(F)cc1)c1ccccc1 (stereo not drawn) [Example 10, [α-(4-Fluorobenzyl)benzyl]-(pyrid-3-yl)-ketone]
66 to 67	O=C(CCc1ccc(F)cc1)c1ccc(C(F)(F)F)cc1 [Example 19, (4-Fluorophenethyl)-(4-trifluoromethylphenyl)-ketone]
128 to 129	O=C(Cc1ccc(Cl)cc1)c1ccc(Br)cc1 [Reference Example 3, (4-Bromophenyl)-(4-chlorobenzyl)-ketone]
107 to 111	Cc1ccc(C(=O)Cc2ccccc2)cc1 [Reference Example 11, (Benzyl)-(4-methylphenyl)-ketone]
126 to 128	O=C(c1ccc(Cl)cc1)C(Cn1cncn1)c1ccc(Cl)cc1 (stereo not drawn) [Reference Example 16, (4-Chlorophenyl)-[α-(1,2,4-triazol-1-ylmethyl)-4-chlorobenzyl]-ketone]
